# Results taken from patent US20110160196A1, “FACTOR XA INHIBITORS” (Millennium Pharmaceuticals, Inc., priority 2007, published 2011).
# Biological target: T1, human plasma protein factor Xa (Homo sapiens, UniProt P00742)
# T1 construct: The human plasma protein factor Xa was purchased; purchased Haematologic Technologies (Essex Junction, Vt.); host or cells: human plasma
# Experiment: Factor Xa IC50 determination (cleavage of paranitroanilide substrate S-2765)
# Format: biochemical
# Settings: factor Xa 1 nM, S-2765 100 μM, Tris buffered saline pH 7.4, read at 405 nm
# Text: This example illustrates methods for evaluating the compounds of the invention, along with results obtained for such assays. The in vitro and in vivo human Factor Xa activities of the inventive compounds can be determined by various procedures known in the art, such as a test for their ability to inhibit the activity of human plasma Factor Xa. […] The IC50 value is the concentration (in nM) of the compound required to provide 50% inhibition of human Factor Xa proteolytic activity.
# An in vitro assay for detecting and measuring inhibition activity against Factor Xa is as follows:
# The substrate S-2765 (Z-D-Arg-Gly-Arg-pNA.HCl) was obtained from Diapharma (West Chester, Ohio).
# The human plasma protein factor Xa was purchased from Haematologic Technologies (Essex Junction, Vt.).
# All assays, which are performed in 96-well microtiter plates, measure proteolytic activity of the enzyme (factor Xa) by following cleavage of a paranitroanilide peptide substrate. The assay buffer used for proteolytic assays was Tris buffered saline (20 mM Tris, 150 mM NaCl, 5 mM CaCl2, 0.1% Bovine serum albumin (BSA), 5% Dimethly Sulfoxide (DMSO) pH 7.4). In a 96-well microtiter plate, inhibitor was serially diluted to give a range of final concentrations from 0.01 nM to 10 μM. Duplicate sets of wells were assayed and control wells without inhibitor were included. Enzyme was added to each well, (factor Xa concentration=1 nM), the plate was shaken for 5 seconds and then incubated for 5 minutes at room temperature. S-2765 was added (100 μM final) and the plate was shaken for 5 seconds (final volume in each well was 200 μl). The degree of substrate hydrolysis was measured at 405 nm on a Thermomax plate reader (Molecular Devices, Sunnyvale, Calif.) for 2 minutes. The initial velocities of substrate cleavage (mOD/min), for each range of inhibitor concentrations, were fitted to a four parameter equation using Softmax data analysis software. The parameter C, derived from the resulting curve-fit, corresponded to the concentration for half maximal inhibition (IC50).
# T1 sequence (P00742 235-488 limits assumed): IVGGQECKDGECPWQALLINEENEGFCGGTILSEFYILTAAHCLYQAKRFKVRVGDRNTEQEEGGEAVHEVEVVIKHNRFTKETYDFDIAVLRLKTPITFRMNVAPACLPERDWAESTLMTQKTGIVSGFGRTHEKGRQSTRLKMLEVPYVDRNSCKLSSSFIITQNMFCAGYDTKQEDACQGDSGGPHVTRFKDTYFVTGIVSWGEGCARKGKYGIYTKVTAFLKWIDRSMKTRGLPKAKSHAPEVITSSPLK
# T1 sequence (P00742 41-179 partner limits assumed): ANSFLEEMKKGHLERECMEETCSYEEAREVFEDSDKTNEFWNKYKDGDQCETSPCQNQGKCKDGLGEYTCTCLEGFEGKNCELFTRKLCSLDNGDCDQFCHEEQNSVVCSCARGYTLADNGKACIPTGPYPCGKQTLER
row,Compound,IC50 [nM]
1,"CNc1cc(-n2ccccc2=O)ccc1-n1cc(CNC(=O)c2ccc(Cl)s2)nn1 [Compound 1, 5-Chloro-N-((1-(2-(methylamino)-4-(2-oxopyridin-1(2H)-yl)phenyl)-1H-1,2,3-triazol-4-yl)methyl)thiophene-2-carboxamide]",≤ 100
2,"CN(C)c1cc(-n2ccccc2=O)ccc1-n1cc(CNC(=O)c2ccc(Cl)s2)nn1 [Compound 2, 5-Chloro-N-((1-(2-(dimethylamino)-4-(2-oxopyridin-1(2H)-yl)phenyl)-1H-1,2,3-triazol-4-yl)methyl)thiophene-2-carboxamide]",≤ 100
3,"O=C(NCc1cn(-c2ccc(-n3ccccc3=O)cc2N2CCCC2)nn1)c1ccc(Cl)s1 [Compound 3, 5-Chloro-N-((1-(4-(2-oxopyridin-1(2H)-yl)-2-(pyrrolidin-1-yl)phenyl)-1H-1,2,3-triazol-4-yl)methyl)thiophene-2-carboxamide]",≤ 100
4,"O=C(NCc1cn(-c2ccc(-n3ccccc3=O)cc2N2CCCCC2)nn1)c1ccc(Cl)s1 [Compound 4, 5-Chloro-N-((1-(4-(2-oxopyridin-1(2H)-yl)-2-(piperidin-1-yl)phenyl)-1H-1,2,3-triazol-4-yl)methyl)thiophene-2-carboxamide]",≤ 100
5,"O=C(NCc1cn(-c2ccc(-n3ccccc3=O)cc2N2CCOCC2)nn1)c1ccc(Cl)s1 [Compound 5, 5-Chloro-N-((1-(2-morpholino-4-(2-oxopyridin-1(2H)-yl)phenyl)-1H-1,2,3-triazol-4-yl)methyl)thiophene-2-carboxamide]",≤ 100
6,"O=C1CN(c2cc(-n3ccccc3=O)ccc2-n2cc(CNC(=O)c3ccc(Cl)s3)nn2)CCN1 [Compound 6, 5-Chloro-N-((1-(2-(3-oxopiperazin-1-yl)-4-(2-oxopyridin-1(2H)-yl)phenyl)-1H-1,2,3-triazol-4-yl)methyl)thiophene-2-carboxamide]",≤ 100
7,"O=C(NCc1cn(-c2ccc(-n3ccccc3=O)cc2N2CCSCC2)nn1)c1ccc(Cl)s1 [Compound 10, 5-Chloro-N-((1-(4-(2-oxopyridin-1(2H)-yl)-2-thiomorpholinophenyl)-1H-1,2,3-triazol-4-yl)methyl)thiophene-2-carboxamide]",≤ 100
8,"O=C(NCc1cn(-c2ccc(-n3ccccc3=O)cc2N2CC[S+]([O-])CC2)nn1)c1ccc(Cl)s1 [Compound 11, 5-Chloro-N-((1-(4-(2-oxopyridin-1(2H)-yl)-2-((1-oxo-)thiomorpholino)phenyl)-1H-1,2,3-triazol-4-yl)methyl)thiophene-2-carboxamide]",≤ 100
9,"O=C(NCc1cn(-c2ccc(-n3ccccc3=O)cc2N2CCS(=O)(=O)CC2)nn1)c1ccc(Cl)s1 [Compound 12, 5-Chloro-N-((1-(4-(2-oxopyridin-1(2H)-yl)-2-((1,1-dioxo-)thiomorpholino)phenyl)-1H-1,2,3-triazol-4-yl)methyl)thiophene-2-carboxamide]",≤ 100
10,"CC(=O)N1CCN(c2cc(-n3ccccc3=O)ccc2-n2cc(CNC(=O)c3ccc(Cl)s3)nn2)CC1 [Compound 13, N-((1-(2-(4-Acetylpiperazin-1-yl)-4-(2-oxopyridin-1(2H)-yl)phenyl)-1H-1,2,3-triazol-4-yl)methyl)-5-chlorothiophene-2-carboxamide]",≤ 100
11,"CC(=N)N1CCN(c2cc(-n3ccccc3=O)ccc2-n2cc(CNC(=O)c3ccc(Cl)s3)nn2)CC1 [Compound 14, 5-Chloro-N-((1-(2-(4-(1-iminoethyl)piperazin-1-yl)-4-(2-oxopyridin-1(2H)-yl)phenyl)-1H-1,2,3-triazol-4-yl)methyl)thiophene-2-carboxamide]",≤ 100
12,"NC(=O)N1CCN(c2cc(-n3ccccc3=O)ccc2-n2cc(CNC(=O)c3ccc(Cl)s3)nn2)CC1 [Compound 15, 4-(2-(4-((2-Chlorothiophene-5-carboxamido)methyl)-1H-1,2,3-triazol-1-yl)-5-(2-oxopyridin-1(2H)-yl)phenyl)piperazine-1-carboxamide]",≤ 100
